From ChEMBL document CHEMBL3886171, “Compounds and compositions for the inhibition of NAMPT” (2015) come the findings set out here.

SMILES strings stand for the structures.

The assay concerns the target Nicotinamide phosphoribosyltransferase (Homo sapiens, UniProt P43490). Nature of the assay: Biochemical Inhibition Assay: The NAMPT enzymatic reactions were carried out in Buffer A (50 mM Hepes pH 7.5, 50 mM NaCl, 5 mM MgCl2, and 1 mM THP) in 96-well V-bottom plates. The compound titrations were performed in a separate dilution plate by serially diluting the compounds in DMSO to make a 100x stock. Buffer A (89 uL) containing 33 nM of NAMPT protein was added to 1 uL of 100x compound ….

As a reminder, the IC50 is the midpoint of a concentration-inhibition curve. Lower therefore signals higher potency.

Sequence of Nicotinamide phosphoribosyltransferase (P43490 whole entry): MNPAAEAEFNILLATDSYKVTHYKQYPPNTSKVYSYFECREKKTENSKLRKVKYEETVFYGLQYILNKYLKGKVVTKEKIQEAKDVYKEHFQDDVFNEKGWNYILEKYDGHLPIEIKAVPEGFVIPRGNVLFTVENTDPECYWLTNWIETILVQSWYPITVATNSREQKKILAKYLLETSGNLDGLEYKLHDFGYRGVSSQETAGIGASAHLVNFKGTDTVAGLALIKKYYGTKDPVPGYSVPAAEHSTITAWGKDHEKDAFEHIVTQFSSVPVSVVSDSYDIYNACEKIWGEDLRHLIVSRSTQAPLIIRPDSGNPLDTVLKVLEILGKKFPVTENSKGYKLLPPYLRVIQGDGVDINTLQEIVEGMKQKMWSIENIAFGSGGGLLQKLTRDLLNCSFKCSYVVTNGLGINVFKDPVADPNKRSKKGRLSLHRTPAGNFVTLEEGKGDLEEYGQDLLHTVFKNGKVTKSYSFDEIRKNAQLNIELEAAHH
Description: Biochemical Inhibition Assay: The NAMPT enzymatic reactions were carried out in Buffer A (50 mM Hepes pH 7.5, 50 mM NaCl, 5 mM MgCl2, and 1 mM THP) in 96-well V-bottom plates. The compound titrations were performed in a separate dilution plate by serially diluting the compounds in DMSO to make a 100x stock. […] The compound and enzyme mix was incubated for 15 minutes at room temperature, then 10 uL of 10x substrate and co-factors in Buffer A were added to the test well to make a final concentration of 1 uM NAM, 100 uM 5-Phospho-D-ribose 1-diphosphate (PRPP), and 2.5 mM Adenosine 5'-triphosphate (ATP). The reaction was allowed to proceed for 30 minutes at room temperature, then was quenched with the addition of 11 uL of a solution of formic acid and L-Cystathionine to make a final concentration of 1% formic acid and 10 uM L-Cystathionine.

`Cn1ncc2ccc(S(=O)(=O)c3ccc(NC(=O)/C=C/c4cccnc4)cc3)cc21` displayed an IC50 of 2.6 nM.
